Assay results: patent US11999727B2 (Tango Therapeutics, Inc., priority 2020, dated 2024)
Read-outs that look alike come from different tables or passages of the source.

Experiments:
PRMT5 [1] = target: T1, PRMT5 (Homo sapiens, UniProt O14744); assay: PRMT5 biochemical IC50 assay with SAM as cofactor; settings: PRMT5, SAM as cofactor; read-out: SAM IC50
T1 construct: purchased Viva (custom protein)

PRMT5 [2] = target: T1, PRMT5; assay: PRMT5 biochemical IC50 assay with no cofactor; settings: PRMT5, no cofactor; read-out: No Cofactor/ rel IC50
Excerpt: Table 1 indicates IC50 values (μM) against PRMT5 for exemplary compounds in the presence of SAM as cofactor, with no cofactor, and with MTA as cofactor, respectively (columns 4-6). […] Ki values can be calculated from the IC50 values as described in the Examples section. As detailed in the Examples section, for the assay performed in the presence of SAM, IC50=Ki×1.5 (Ki=IC50/1.5).

PRMT5 [3] = target: T1, PRMT5; assay: PRMT5 biochemical IC50 assay with MTA as cofactor; settings: PRMT5, MTA as cofactor; read-out: MTA IC50
[4] = tested on: HAP1 MTAP-intact cell line; assay: SDMA in-cell western assay, HAP1 MTAP-intact; format: cell-based; settings: HAP1 MTAP-intact, read-out: MTAP HAP1 intact IC50
Summary of the method: (§1)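 Isogenic HAP1 pair: the MTAP-intact line expresses endogenous MTAP, and the deleted line is MTAP-null. Symmetric dimethylarginine was detected by in-cell western and IC50 values derived for each line.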

[5] = tested on: HAP1 MTAP-deleted cell line; assay: SDMA in-cell western assay, HAP1 MTAP-deleted; format: cell-based; settings: for IC50: HAP1 MTAP-deleted, read-out: HAP 1 MTAP deleted IC50; for MTAP intact/deleted ratio: IC50 ratio HAP1 MTAP-intact / HAP1 MTAP-deleted
Summary of the method: as §1

[6] = tested on: HAP1 MTAP-deleted cell line; assay: Viability assay, MTAP-deleted cell line; format: cell-based; settings: MTAP-deleted cell line, read-out: HAP1 MTAP deleted viability
Excerpt: Table 1 additionally indicates IC50 values in a viability assay for the MTAP-deleted cell line (column 10), indicating the effect of treatment with compound on cell survival.

[7] = Homo sapiens, HAP1, SDMA in-cell western
[8] = Homo sapiens, HAP1, viability assay

T1 sequence (O14744 whole entry): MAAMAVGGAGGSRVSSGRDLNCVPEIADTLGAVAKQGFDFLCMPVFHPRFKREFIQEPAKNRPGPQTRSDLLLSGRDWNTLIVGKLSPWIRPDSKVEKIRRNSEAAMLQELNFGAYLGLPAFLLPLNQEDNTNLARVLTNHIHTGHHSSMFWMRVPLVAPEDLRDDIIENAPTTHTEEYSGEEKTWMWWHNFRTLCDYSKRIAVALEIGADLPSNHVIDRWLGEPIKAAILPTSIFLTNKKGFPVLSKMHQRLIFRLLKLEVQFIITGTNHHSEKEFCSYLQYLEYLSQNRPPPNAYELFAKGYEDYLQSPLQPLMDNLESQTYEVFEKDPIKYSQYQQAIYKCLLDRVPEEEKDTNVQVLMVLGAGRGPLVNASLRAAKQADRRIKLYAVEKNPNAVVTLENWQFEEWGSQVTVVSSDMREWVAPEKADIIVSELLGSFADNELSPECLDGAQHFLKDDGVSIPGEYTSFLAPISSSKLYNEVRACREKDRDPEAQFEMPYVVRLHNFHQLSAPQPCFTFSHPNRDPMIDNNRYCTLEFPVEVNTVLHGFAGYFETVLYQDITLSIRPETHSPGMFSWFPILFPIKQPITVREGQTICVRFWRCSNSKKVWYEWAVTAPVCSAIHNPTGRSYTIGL
T1 sequence (Q9BQA1 whole entry partner): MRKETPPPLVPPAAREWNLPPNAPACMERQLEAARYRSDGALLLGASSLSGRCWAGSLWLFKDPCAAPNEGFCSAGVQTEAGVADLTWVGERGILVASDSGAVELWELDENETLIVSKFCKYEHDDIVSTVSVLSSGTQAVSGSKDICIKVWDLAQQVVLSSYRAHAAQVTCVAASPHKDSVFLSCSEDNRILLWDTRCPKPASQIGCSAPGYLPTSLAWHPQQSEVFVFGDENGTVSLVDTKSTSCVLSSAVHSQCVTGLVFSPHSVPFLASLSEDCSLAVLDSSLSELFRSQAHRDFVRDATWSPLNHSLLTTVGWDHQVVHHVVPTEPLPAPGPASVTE

| SMILES | IC50 (PRMT5 [1]) | IC50 (PRMT5 [2]) | IC50 (PRMT5 [3]) | IC50 [4, 7] | IC50 [5, 7] | IC50 ([5]; SDMA in-cell western) | IC50 ([4]; SDMA in-cell western) | MTAP intact/deleted ratio ([5]; SDMA in-cell western) | IC50 [6, 8] | IC50 ([6]; viability assay) |
| --- | --- | --- | --- | --- | --- | --- | --- | --- | --- | --- |
| NC(=O)c1cncc(NC(=O)C(=O)N2CCCC[C@H]2c2ccccc2)c1 (single isomer, unassigned) [Compound 97] | > 500 nM | > 500 nM | 50 to 500 nM | > 1000 nM | > 1000 nM | – | – | C (an IC50 ratio of less than 3 fold) | > 10000 nM | – |
| C[C@H]1CC[C@@H](c2cccnc2)N(C(=O)C(=O)Nc2cncc(C(N)=O)c2)C1 (single isomer, unassigned) [Compound 104] | 50 to 500 nM | > 500 nM | 50 to 500 nM | > 1000 nM | > 1000 nM | – | – | B (an IC50 ratio greater than or equal to 3 fold but lower than 10 fold) | > 10000 nM | – |
| C[C@H]1CC[C@H](c2cccnc2)N(C(=O)C(=O)Nc2cncc(C(N)=O)c2)C1 (single isomer, unassigned) [Compound 105] | > 500 nM | > 500 nM | > 500 nM | > 1000 nM | > 1000 nM | – | – | C (an IC50 ratio of less than 3 fold) | > 10000 nM | – |
| C[C@@H]1CC[C@@H](c2cccnc2)N(C(=O)C(=O)Nc2cncc(C(N)=O)c2)C1 (single isomer, unassigned) [Compound 106] | < 50 nM | 50 to 500 nM | < 50 nM | > 1000 nM | < 100 nM | – | – | A (an IC50 ratio greater than or equal to 10 fold) | 1000 to 10000 nM | – |
| Cc1cc(NC(=O)C(=O)N2C[C@H](C)CC[C@H]2c2cccs2)cnc1N (single isomer, unassigned) [Compound 115] | 50 to 500 nM | < 50 nM | < 50 nM | 100 to 1000 nM | < 100 nM | – | – | A (an IC50 ratio greater than or equal to 10 fold) | < 1000 nM | – |
| Cc1cc(NC(=O)C(=O)N2C[C@H]3CC[C@H](C3)[C@H]2c2cccs2)cnc1N (single isomer, unassigned) [Compound 134] | > 500 nM | > 500 nM | > 500 nM | > 1000 nM | > 1000 nM | – | – | C (an IC50 ratio of less than 3 fold) | > 10000 nM | – |

The next lines start with results.

| IC50 (PRMT5 [1]) | IC50 (PRMT5 [2]) | IC50 (PRMT5 [3]) | IC50 [4, 7] | IC50 [5, 7] | IC50 ([5]; SDMA in-cell western) | IC50 ([4]; SDMA in-cell western) | SMILES | MTAP intact/deleted ratio ([5]; SDMA in-cell western) | IC50 [6, 8] | IC50 ([6]; viability assay) |
| --- | --- | --- | --- | --- | --- | --- | --- | --- | --- | --- |
| > 500 nM | > 500 nM | > 500 nM | > 1000 nM | – | > 1000 nM | – | NC(=O)c1cncc(NC(=O)C(=O)N2CCCCC2C2CCCCC2)c1 (single isomer, unassigned) [Compound 108, 5-(2-(2-cyclohexylpiperidin-1-yl)-2-oxoacetamido)nicotinamide] | C (an IC50 ratio of less than 3 fold) | – | > 10000 nM |
| 50 to 500 nM | 50 to 500 nM | < 50 nM | – | – | < 100 nM | > 1000 nM | NC(=O)c1cncc(NC(=O)C(=O)N2CCCCC2C2CCCCC2)c1 (single isomer, unassigned) [Compound 113, 5-(2-(2-cyclohexylpiperidin-1-yl)-2-oxoacetamido)nicotinamide] | A (an IC50 ratio greater than or equal to 10 fold) | – | 1000 to 10000 nM |
| > 500 nM | > 500 nM | 50 to 500 nM | > 1000 nM | 100 to 1000 nM | – | – | C[C@H]1CC[C@H](C2CCCCC2)N(C(=O)C(=O)Nc2cncc(C(N)=O)c2)C1 (single isomer, unassigned) [Compound 117] | A (an IC50 ratio greater than or equal to 10 fold) | > 10000 nM | – |
| 50 to 500 nM | 50 to 500 nM | < 50 nM | > 1000 nM | < 100 nM | – | – | C[C@H]1CC[C@@H](C2CCCCC2)N(C(=O)C(=O)Nc2cncc(C(N)=O)c2)C1 (single isomer, unassigned) [Compound 121] | A (an IC50 ratio greater than or equal to 10 fold) | 1000 to 10000 nM | – |
